Glass transition temperature data for 37 compounds are collected here from the PolyMetriX glass transition set.

On to `*C(=O)c1ccc2c(c1)C(=O)N(c1cc(-c3nc4ccccc4[nH]3)cc(N3C(=O)c4ccc(*)cc4C3=O)c1)C2=O` (repeat unit), for which the glass transition temperature is 197.00 °C.

The compound `*C(=O)c1ccc2c(c1)C(=O)N(c1cc(/C=N/C(=S)Nc3ccc(N4C(=O)c5ccc(*)cc5C4=O)cc3)ccc1Cl)C2=O` (repeat unit) displayed a glass transition temperature of 274.00 °C.

For the compound `*C(=O)c1ccc2c(c1)C(=O)N(c1cc(Br)c(Oc3c(Br)cc(N4C(=O)c5ccc(*)cc5C4=O)cc3Br)c(Br)c1)C2=O` (repeat unit), the glass transition temperature came to 323.00 °C.

Regarding `*C1CCC(CC2CCC(N3C(=O)c4ccc(Oc5ccc6c(c5)C(=O)N(*)C6=O)cc4C3=O)CC2)CC1` (repeat unit), the glass transition temperature was found to be 240.00 °C.

As to `*CC1CC2CC1C1CCC(CN3C(=O)c4ccc(Oc5ccc6c(c5)C(=O)N(*)C6=O)cc4C3=O)C21` (repeat unit), the glass transition temperature amounted to 201.00 °C.

The compound `*CCCCCCCCCCCCN1C(=O)c2ccc(Oc3ccc4c(c3)C(=O)N(*)C4=O)cc2C1=O` (repeat unit) gave a glass transition temperature of 70.00 °C.

`*CCCCCCCCCCCN1C(=O)c2ccc(Oc3ccc4c(c3)C(=O)N(*)C4=O)cc2C1=O` (repeat unit): the glass transition temperature was 74.00 °C.

In turn, `*CCCCCCCCCN1C(=O)c2ccc(Oc3ccc4c(c3)C(=O)N(*)C4=O)cc2C1=O` (repeat unit) returned a glass transition temperature of 89.00 °C.

In the case of `*CCCCCCCCN1C(=O)c2ccc(C(=O)c3ccc4c(c3)C(=O)N(*)C4=O)cc2C1=O` (repeat unit), the glass transition temperature is 113.00 °C.

Consider `*CCCCCCN1C(=O)c2ccc(C(=O)c3ccc4c(c3)C(=O)N(*)C4=O)cc2C1=O` (repeat unit), for which the glass transition temperature was found to be 127.00 °C.

`*CCCOCCCCOCCCN1C(=O)c2ccc(C(=O)Oc3ccc4cc(OC(=O)c5ccc6c(c5)C(=O)N(*)C6=O)ccc4c3)cc2C1=O` (repeat unit) came in with a glass transition temperature of 68.00 °C.

In turn, `*OC(=O)c1cccc(C(=O)Oc2ccc3c(c2)Oc2cc(*)ccc2C32OC(=O)c3ccccc32)c1` (repeat unit) registered a glass transition temperature of 276.00 °C.

`*Oc1ccc2cc(OC(=O)c3ccc(Oc4ccc(C(*)=O)cc4)cc3)ccc2c1` (repeat unit) came in with a glass transition temperature of 145.00 °C.

In turn, `*c1cc(N2C(=O)c3ccc(Oc4ccc5c(c4)C(=O)N(*)C5=O)cc3C2=O)c(O)cc1O` (repeat unit) returned a glass transition temperature of 263.00 °C.

In turn, `*c1ccc(-c2ccc(N3C(=O)c4ccc(Oc5ccc6c(c5)C(=O)N(*)C6=O)cc4C3=O)c(OCCCCCCOc3ccc(/C=C/c4ccc(F)cc4)cc3)c2)cc1OCCCCCCOc1ccc(/C=C/c2ccc(F)cc2)cc1` (repeat unit) yielded a glass transition temperature of 124.00 °C.

`*c1ccc(-c2ccc(N3C(=O)c4ccc(Oc5ccc6c(c5)C(=O)N(*)C6=O)cc4C3=O)cc2C(F)(F)F)c(C(F)(F)F)c1` (repeat unit) had a glass transition temperature of 275.00 °C.

`*c1ccc(C2(c3ccc(N4C(=O)c5ccc(Oc6ccc7c(c6)C(=O)N(*)C7=O)cc5C4=O)cc3)c3ccccc3-c3ccccc32)cc1` (repeat unit) displayed a glass transition temperature of 373.00 °C.

For the compound `*c1ccc(OCCOCCOCCOc2cccc(N3C(=O)c4ccc(Oc5ccc6c(c5)C(=O)N(*)C6=O)cc4C3=O)c2)cc1` (repeat unit), the glass transition temperature was found to be 107.00 °C.

For `*c1ccc(OCCOCCOc2cccc(N3C(=O)c4ccc(Oc5ccc6c(c5)C(=O)N(*)C6=O)cc4C3=O)c2)cc1` (repeat unit), the glass transition temperature came out at 146.50 °C.

The compound `*c1ccc(OCCOc2cccc(N3C(=O)c4ccc(Oc5ccc6c(c5)C(=O)N(*)C6=O)cc4C3=O)c2)cc1` (repeat unit) registered a glass transition temperature of 178.50 °C.

As to `*c1ccc(Oc2ccc(-c3ccc(Oc4ccc(N5C(=O)c6ccc(Oc7cc(C(C)(C)C)c(Oc8ccc9c(c8)C(=O)N(*)C9=O)cc7C(C)(C)C)cc6C5=O)cc4)cc3)cc2)cc1` (repeat unit), the glass transition temperature came to 262.00 °C.

As for `*c1ccc(Oc2ccc(-c3ccc(Oc4ccc(N5C(=O)c6ccc(Oc7ccc8c(c7)C(=O)N(*)C8=O)cc6C5=O)cc4)cc3)cc2)cc1` (repeat unit), the glass transition temperature worked out at 245.00 °C.

`*c1ccc(Oc2ccc(C(c3ccc(Oc4ccc(N5C(=O)c6ccc(Oc7ccc8c(c7)C(=O)N(*)C8=O)cc6C5=O)cc4)cc3)(C(F)(F)F)C(F)(F)F)cc2)cc1` (repeat unit): the glass transition temperature was found to be 264.00 °C.

On to `*c1ccc(Oc2ccc(N3C(=O)c4ccc(Oc5c(Oc6ccc7c(c6)C(=O)N(*)C7=O)cc(C(C)(C)C)cc5C(C)(C)C)cc4C3=O)cc2)cc1` (repeat unit), for which the glass transition temperature came out at 228.00 °C.

`*c1ccc(Oc2ccc(N3C(=O)c4ccc(Oc5ccc6c(c5)C(=O)N(*)C6=O)cc4C3=O)cc2Br)c(Br)c1` (repeat unit): the glass transition temperature worked out at 251.00 °C.

Turning to `*c1ccc(Oc2ccc(N3C(=O)c4ccc(Oc5ccc6c(c5)C(=O)N(c5ncc(*)s5)C6=O)cc4C3=O)cc2)cc1` (repeat unit), the glass transition temperature is 300.00 °C.

Regarding `*c1ccc(Oc2ccc(N3C(=O)c4ccc(Oc5ccc6cc(Oc7ccc8c(c7)C(=O)N(*)C8=O)ccc6c5)cc4C3=O)cc2)cc1` (repeat unit), the glass transition temperature stood at 249.00 °C.

For the compound `*c1ccc(Oc2ccc(N3C(=O)c4cccc(Oc5ccc(Sc6ccc(Oc7cccc8c7C(=O)N(*)C8=O)cc6)cc5)c4C3=O)cc2)cc1` (repeat unit), the glass transition temperature was determined as 234.00 °C.

For `*c1ccc(Oc2cccc(Oc3ccc(N4C(=O)c5ccc(Oc6ccc(Sc7ccc(Oc8ccc9c(c8)C(=O)N(*)C9=O)cc7)cc6)cc5C4=O)cc3)c2)cc1` (repeat unit), the glass transition temperature came out at 178.00 °C.

The compound `*c1ccc(Sc2ccc(Sc3ccc(N4C(=O)c5ccc(Oc6ccc7c(c6)C(=O)N(*)C7=O)cc5C4=O)cc3)s2)cc1` (repeat unit) yielded a glass transition temperature of 218.00 °C.

For `*c1ccc(Sc2ccc(Sc3ccc(Sc4ccc(Sc5ccc(N6C(=O)c7ccc(Oc8ccc9c(c8)C(=O)N(*)C9=O)cc7C6=O)cc5)s4)s3)s2)cc1` (repeat unit), the glass transition temperature was determined as 158.50 °C.

Consider `*c1cccc(C(O)c2cccc(N3C(=O)c4ccc(Oc5ccc6c(c5)C(=O)N(*)C6=O)cc4C3=O)c2)c1` (repeat unit), for which the glass transition temperature came to 252.00 °C.

In turn, `*c1cccc(C(c2cccc(N3C(=O)c4ccc(Oc5ccc6c(c5)C(=O)N(*)C6=O)cc4C3=O)c2)(C(F)(F)F)C(F)(F)F)c1` (repeat unit) showed a glass transition temperature of 224.50 °C.

`*c1cccc(N2C(=O)c3ccc(Oc4ccc5c(c4)C4(CC(C)(C)c6ccc(Oc7ccc8c(c7)C(=O)N(*)C8=O)cc64)CC5(C)C)cc3C2=O)c1` (repeat unit) came in with a glass transition temperature of 253.00 °C.

In the case of `*c1cccc(N2C(=O)c3cccc(Oc4ccc(Sc5ccc(Oc6cccc7c6C(=O)N(*)C7=O)cc5)cc4)c3C2=O)c1` (repeat unit), the glass transition temperature is 231.00 °C.

`*c1cccc(Oc2ccc(P(=O)(c3ccccc3)c3ccccc3)c(Oc3cccc(N4C(=O)c5ccc(Oc6ccc7c(c6)C(=O)N(*)C7=O)cc5C4=O)c3)c2)c1` (repeat unit): the glass transition temperature worked out at 212.00 °C.

In turn, `*c1cccc(S(=O)(=O)c2cccc(N3C(=O)c4ccc(Oc5ccc(Sc6ccc(Oc7ccc8c(c7)C(=O)N(*)C8=O)cc6)cc5)cc4C3=O)c2)c1` (repeat unit) had a glass transition temperature of 231.00 °C.
